Measured values reported in US5430047A, “Neurotensin antagonists” (Warner-Lambert Company, priority 1994, dated 1995).

Key:
neurotensin receptor [1] = molecular target: T1, neurotensin receptor (Homo sapiens, UniProt P30989); assay: Inhibition of neurotensin-induced calcium mobilization in HT29 cells; assay type: cell-based
T1 construct: endogenous in cells; host or cells: HT29 cells
Method: (§1) Thus, the compounds of Formula I were tested for their ability to inhibit [^3 H] neurotensin binding in a receptor assay described by Mazella J., et al., Journal of Biological Chemistry, 263:144-149 (1988) and Kitabgi P., et al., European Journal of Pharmacology, 140:285-293 (1987). Compounds were tested as neurotensin antagonists using the functional assay described by Bunzou J. C., et al., Biochem. J., 264:871-878 (1989) and Turner J., et al., J. Pharm. Exp. Ther., 253:1049-1056 (1990). Thus, compounds were tested for their ability to inhibit neurotensin-induced calcium mobilization in HT29 cells.
(§2) The above test methods are incorporated herein by reference. The data in the table show the neurotensin receptor binding activity and calcium mobilization activity, of representative compounds of Formula I.

neurotensin receptor [2] = molecular target: T2, neurotensin receptor (Mus musculus, UniProt O88319); assay: Inhibition of [3H] neurotensin binding in a receptor assay; details: [3H] neurotensin receptor binding
T2 construct: from tissue
T2 sequence (O88319 whole entry): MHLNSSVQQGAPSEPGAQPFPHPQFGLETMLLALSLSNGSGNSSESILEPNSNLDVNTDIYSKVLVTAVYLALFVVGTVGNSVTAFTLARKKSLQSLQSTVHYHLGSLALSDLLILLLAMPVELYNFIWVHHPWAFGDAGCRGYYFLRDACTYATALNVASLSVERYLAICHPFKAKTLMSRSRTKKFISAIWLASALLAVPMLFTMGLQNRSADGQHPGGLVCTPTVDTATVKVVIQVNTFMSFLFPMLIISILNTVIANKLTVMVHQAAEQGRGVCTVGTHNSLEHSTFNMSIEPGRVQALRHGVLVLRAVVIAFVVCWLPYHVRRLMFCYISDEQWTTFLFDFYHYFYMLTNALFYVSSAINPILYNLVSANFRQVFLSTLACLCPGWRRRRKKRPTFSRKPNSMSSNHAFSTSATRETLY
Method: as §1, §2

T1 sequence (P30989 whole entry): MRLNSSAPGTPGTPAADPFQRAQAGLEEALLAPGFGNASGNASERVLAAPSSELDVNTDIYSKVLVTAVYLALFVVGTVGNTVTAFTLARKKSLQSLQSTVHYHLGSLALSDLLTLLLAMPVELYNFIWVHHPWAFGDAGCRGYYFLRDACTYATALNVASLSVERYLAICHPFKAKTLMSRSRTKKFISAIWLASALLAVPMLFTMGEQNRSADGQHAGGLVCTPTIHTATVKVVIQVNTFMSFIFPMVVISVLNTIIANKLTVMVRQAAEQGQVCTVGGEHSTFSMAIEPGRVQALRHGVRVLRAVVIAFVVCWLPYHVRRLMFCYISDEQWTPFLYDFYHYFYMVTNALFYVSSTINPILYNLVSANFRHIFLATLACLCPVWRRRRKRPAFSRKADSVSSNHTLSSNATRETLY

Row | IC50 (neurotensin receptor [1]) [µM] | Ki (neurotensin receptor [2]) [µM] | SMILES
1 | 2.2 | – | COc1cccc(OC)c1C(=O)CC(CC(=O)c1ccc(Cl)cc1)c1cccc(C(=O)O)c1 (stereo not drawn) [Example 7, 3-[1-[2-(4-Chlorophenyl)-2-oxoethyl]-3-(2,6-dimethoxyphenyl)-3-oxopropyl]-benzoic acid]
2 | – | 0.448 | Cc1ccc(C(=O)CC(CC(=O)c2ccc(F)cc2)c2cccc(C(=O)O)c2)cc1 (stereo not drawn) [Example 15, 3-[1-[2-(4-Fluorophenyl)-2-oxoethyl]-3-oxo-3-p-tolylpropyl]-benzoic acid]
3 | – | 6.32 | O=C(CC(CC(=O)c1ccc(F)cc1)c1cccc(-c2nnn[nH]2)c1)c1ccc(F)cc1 [Example 17, 1,5-Bis-(4-fluorophenyl)-3-[3-(1H-tetrazol-5-yl)-phenyl]-pentane-1,5-dione]
4 | – | 5.9 | O=C(CC(CC(=O)c1ccc(Cl)cc1)c1cccc(-c2nnn[nH]2)c1)c1ccc(Cl)cc1 [Example 18, 1,5-Bis-(4-chlorophenyl)-3-[3-(1H-tetrazol-5-yl)phenyl]-pentane-1,5-dione]
5 | – | 17.7 | O=C(O)c1cccc(C(CCc2ccc(Cl)cc2)CC(=O)c2ccccc2)c1 (stereo not drawn) [Example 19, 3-[1-[2-(4-Chlorophenyl)ethyl]-3-oxo-3-phenylpropyl]-benzoic acid]
6 | – | 6.74 | O=C(O)c1cccc(C(CCc2ccc(Cl)cc2)CC(=O)c2ccc(Cl)cc2)c1 (stereo not drawn) [Example 20, 3-[3-(4-Chlorophenyl)-1-[2-(4-chlorophenyl)ethyl]-3-oxopropyl]-benzoic acid]
7 | – | 29.5 | O=C(O)c1cccc(C(CCc2ccc(F)cc2)CC(=O)c2ccccc2)c1 (stereo not drawn) [Example 21, 3-[1-[2-(4-Fluorophenyl)ethyl]-3-oxo-3-phenylpropyl]-benzoic acid]
8 | – | 3.24 | O=C(O)c1cccc(C(CCc2ccc(F)cc2)CC(=O)c2ccc(F)cc2)c1 (stereo not drawn) [Example 22, 3-[3-(4-Fluorophenyl)-1-[2-(4-fluorophenyl)ethyl]-3-oxopropyl]-benzoic acid]
9 | – | 10.4 | O=C(O)c1cccc(C(CCc2ccccc2)CC(=O)c2ccc(Cl)cc2)c1 (stereo not drawn) [Example 23, 3-[3-(4-Chlorophenyl)-3-oxo-1-[2-phenylethyl]propyl]-benzoic acid]
